The source made the active and inactive calls. No rule for the calls is given here.
System: C. elegans hsp-16.2 reporter, heat-shock counterscreen
Test: heat-shock hsp-16.2 reporter inhibition in worms, dose response, counter-screen for SKN-1 inhibitor project, whole organism, C. elegans (AID 651579)

| SMILES | IC50 |
| --- | --- |
| O=C(Nc1ccc(SC(F)F)cc1)c1ccccc1F | > 64 µM (inactive) |
| Fc1ccc(COc2ccc(-c3nnco3)cc2)c(Cl)c1 | > 64 µM (inactive) |
| Clc1ccc(-c2nnc(-c3ccco3)o2)cc1 | 2.68 µM |
| O=C(Nc1nccs1)c1ccc2ccccc2c1 | > 64 µM (inactive) |
| Cc1ccc(CSc2nnc(-c3ccco3)o2)cc1 | 30.6 µM |
| O=C(Nc1nc2c(ccc3ccccc32)s1)c1ccco1 | > 64 µM (inactive) |
| CCOc1ccc(-c2nc(-c3cccnc3)no2)cc1 | > 64 µM (inactive) |
| CC(C)(C)N=C1NN=C(c2ccc(Cl)cc2)CS1 | > 64 µM (inactive) |
| CSc1ccc(-c2cc(=O)c3ccccc3o2)cc1 | > 64 µM (inactive) |
| O=C(/C=C/c1ccc(Br)cc1)c1ccc(NC2=NCCCS2)cc1 | > 64 µM (inactive) |
| COc1ccc(C(=O)Nc2nc(-c3cccs3)cs2)cc1 | > 64 µM (inactive) |
| CCc1ccc(-c2nc(-c3ccncc3)no2)cc1 | 33.5 µM |
| Cc1ccc(N=C/C(C(=O)C(F)(F)F)=C(\O)c2ccco2)cc1Cl | 37.7 µM |
| Cc1nc2ccccc2cc1OCc1ccc(F)cc1 | > 64 µM (inactive) |
| CSc1cccc(NC(=O)c2cccc3cccnc23)c1 | 46.3 µM |
| CC/C(=C\c1ccc(Cl)cc1)c1ccncc1 | > 64 µM (inactive) |
| Brc1ccc2nc(N3CCCC3)sc2c1 | > 64 µM (inactive) |
| Clc1ccc(C#Cc2cccnc2)cc1 | 2.57 µM |
| CCOC(=O)c1c(-c2ccc(-c3ccccc3)cc2)csc1NC(=O)CNCCN(C)C | > 64 µM (inactive) |
| C(=C\c1nc(-c2ccncc2)no1)/c1ccccc1 | > 64 µM (inactive) |
| CN1CCN(c2ccc(NC(=O)c3ccc(Oc4ccccc4)cc3)cc2)CC1 | > 64 µM (inactive) |
| Clc1ccc(C=Cc2ccccn2)cc1 | > 64 µM (inactive) |
| CCN(CC)Cc1ccc(NC(=O)c2sc3cc(Cl)ccc3c2Cl)cc1 | > 64 µM (inactive) |
| Brc1ccc(CSc2nnc(-c3cccnc3)o2)cc1 | 45.4 µM |
| N=C1C=CC(=C(c2ccc(N)cc2)c2ccc(N)cc2)C=C1 | > 64 µM (inactive) |
| Fc1ccc(CSc2ncnc3ccccc23)cc1 | > 64 µM (inactive) |

| SMILES | IC50 |
| --- | --- |
| O=[N+]([O-])c1ccc(COc2ccc(CN3CCCC3)cc2)cc1 | > 64 µM (inactive) |
| O=C(Nc1nc(-c2ccc(Cl)s2)cs1)c1cccs1 | > 64 µM (inactive) |
| O=C(Nc1nccs1)c1ccc2ccccc2n1 | > 64 µM (inactive) |
| CC(C)c1ccc(C(=O)Nc2ccc(CN3CCOCC3)cc2)cc1 | > 64 µM (inactive) |
| c1ccc(-c2nc3cc4ccccc4cc3[nH]2)nc1 | 5.91 µM |
| CCN(CC)c1ccc(/C=C2/C(=O)c3ccc(C(=O)O)cc3C2=O)cc1 | > 64 µM (inactive) |
| O=C(NCc1ccncc1)c1ccc(-c2ccc(F)c(F)c2)c2ccoc12 | > 64 µM (inactive) |
| Cn1c(=O)c2c(-c3ccccc3)n(-c3ccc(N)cc3)cc2n(C)c1=O | 3.62 µM |
| O=C(Nc1ccc(OC(F)F)c(Cl)c1)c1ccccn1 | > 64 µM (inactive) |
| CCc1nc2c(OCc3ccc(C(F)(F)F)cc3)cccn2c1N(C)C(=O)c1ccncc1 | 49.9 µM |
| CCc1ccc(C(=O)Nc2ccc3nc(C)ccc3c2)cc1 | > 64 µM (inactive) |
| Brc1ccc(-c2nnc(-c3ccco3)o2)cc1 | > 64 µM (inactive) |
| Cc1ccccc1-c1noc(-c2cccs2)n1 | > 64 µM (inactive) |
| Fc1ccc(Cn2nnc(-c3ccc(CN4CCOCC4)cc3)n2)cc1 | 4.88 µM |
| C(=C\c1nnc(-c2cccs2)o1)/c1ccccc1 | > 64 µM (inactive) |
| Clc1ccc(C=Cc2ccccn2)c(Cl)c1 | 22.9 µM |
| Clc1ccc2nc(-c3ccc(Br)s3)cn2c1 | 15.9 µM |
| Fc1ccc(-c2cnc(-c3cccs3)o2)cc1 | > 64 µM (inactive) |
| c1ccc(Nc2nc(-c3cccs3)cs2)nc1 | > 64 µM (inactive) |
| COc1cc(CNC2CCCC2)cc(Cl)c1OCc1ccc(F)cc1 | 42.7 µM |
| O=[N+]([O-])c1ccc2nc(-c3ccccc3)oc2c1 | > 64 µM (inactive) |
| Cc1ccc(-c2noc(-c3cccs3)n2)cc1 | > 64 µM (inactive) |
| C=CCSc1ncc(-c2ccccc2)cn1 | > 64 µM (inactive) |
| CCN(CC)c1ccc(/C=C2\C(=O)c3ccc(C(=O)O)cc3C2=O)cc1 | > 64 µM (inactive) |
| Cc1ccc2nc(-c3ccc(NC(=S)NC4CC(C)(C)NC(C)(C)C4)cc3)sc2c1 | > 64 µM (inactive) |
| COc1cc(CNC(C)(C)CO)cc(Br)c1OCc1ccc(Cl)cc1 | > 64 µM (inactive) |

| SMILES | IC50 |
| --- | --- |
| CCCCOc1ccc(C(=O)OC2CC(C)N(C)CC2C)cc1 (centres undefined) | > 64 µM (inactive) |
| Clc1ccccc1-c1nnc(-c2ccccc2Cl)o1 | > 64 µM (inactive) |
| Fc1ccc(COc2ccc(-c3nnco3)cc2)cc1 | > 64 µM (inactive) |
| O=C(C=Cc1ccccc1)CC(c1ccccc1)N1CCOCC1 (centres undefined) | > 64 µM (inactive) |
| c1ccc(-c2csc(Nc3ccccn3)n2)cc1 | > 64 µM (inactive) |
| O=C(N=C1N=C2C=CC(Br)=CN2Cc2ccccc21)c1ccc([N+](=O)[O-])cc1[N+](=O)[O-] | > 64 µM (inactive) |
| Clc1ccc(Cn2nnc(-c3ccccc3)n2)cc1 | > 64 µM (inactive) |
| O=C(Nc1ccc(CN2CCOCC2)cc1)c1cc2ccccc2o1 | 4.25 µM |
| Clc1ccccc1-c1nc(-c2ccncc2)no1 | > 64 µM (inactive) |
| O=[N+]([O-])c1ccc(NCc2ccc(Cl)cc2)nc1 | > 64 µM (inactive) |
| O=c1cc(-c2ccc(F)cc2)oc2ccccc12 | > 64 µM (inactive) |
| CCOc1cc(CNCCSc2nnnn2C)cc(Br)c1OCc1ccc(F)cc1 | > 64 µM (inactive) |
| c1ccc2sc(SCc3ccc(-c4nnco4)cc3)nc2c1 | > 64 µM (inactive) |
| O=C(Nc1nc(-c2ccc(Cl)s2)cs1)c1ccccc1 | 22.6 µM |
| COc1ccc2c(c1)OC/C(=C/c1cccs1)C2=O | > 64 µM (inactive) |
| Clc1ccc(-c2nnc(-c3ccccc3)o2)c(Cl)c1 | > 64 µM (inactive) |
| Fc1ccc(-n2nnc(-c3cccnc3Cl)n2)cc1 | > 64 µM (inactive) |
| O=C(/C=C/Nc1ccc(F)cc1F)c1cccs1 | 21.4 µM |
| Brc1ccc(CSc2nnc(-c3ccco3)o2)cc1 | > 64 µM (inactive) |
| c1ccc(-c2ccc(-n3ccnc3)cc2)cc1 | 48.4 µM |
| Clc1ccsc1-c1ccc2ccccc2n1 | > 64 µM (inactive) |
| FCCCOc1ccc(-c2nccc(-c3ccccn3)n2)cc1 | > 64 µM (inactive) |
| Brc1ccc2oc(-c3ccn[nH]3)cc2c1 | > 64 µM (inactive) |
| Cc1oc(-c2ccc(-c3ccccc3)cc2)nc1CN(C)C1CCOC1 (centres undefined) | > 64 µM (inactive) |
| CCOC(=O)Nc1nc(-c2ccc(F)cc2F)cs1 | 47.7 µM |
| O=C(c1cccs1)c1ccc(-c2cccs2)s1 | > 64 µM (inactive) |

| SMILES | IC50 |
| --- | --- |
| Clc1ccc(OCCCc2nc(-c3ccncc3)no2)c(Cl)c1 | > 64 µM (inactive) |
| COc1cc(CNC(C)c2ccccc2)cc(Br)c1OCc1ccc(F)cc1 (centres undefined) | > 64 µM (inactive) |
| O=[N+]([O-])c1ccc2cn(-c3ccccc3)nc2c1 | > 64 µM (inactive) |
| O=C(/C=C/c1ccc(Cl)cc1)Nc1ccc(CN2CCOCC2)cc1 | > 64 µM (inactive) |
| CCOc1cc(CNC2CCCC2)cc(Cl)c1OCc1ccc(F)cc1 | > 64 µM (inactive) |
| O=C(Nc1nc(-c2ccc(Cl)s2)cs1)c1ccco1 | > 64 µM (inactive) |
| CC1=NN(c2ccccc2)C(=O)/C1=C\C=C1/N(C)c2ccccc2C1(C)C | > 64 µM (inactive) |
| Cc1ccc(Nc2nc(-c3cccs3)cs2)nc1 | 13.6 µM |
| O=C(/C=C/Nc1ccc(Br)cc1F)c1ccco1 | > 64 µM (inactive) |
| Cc1c(N2C(=O)/C(=C\c3ccc(N(C)C)cc3)N(C)C2=S)c(=O)n(-c2ccccc2)n1C | > 64 µM (inactive) |
| O=C(/C=C/c1cccs1)c1ccc(Br)cc1 | > 64 µM (inactive) |
| O=C(CC(O)(C(F)(F)F)C(F)(F)F)Nc1ccc(Cl)c(Cl)c1 | > 64 µM (inactive) |
| O=C(/C=C/Nc1ccccc1F)c1cccs1 | > 64 µM (inactive) |
| O=C(Nc1ccc(Cl)cn1)c1ccccc1F | > 64 µM (inactive) |
| Fc1ccc(-c2csc(-c3ccncc3)n2)cc1 | > 64 µM (inactive) |
| CCCn1nc2cc(C(=O)NCc3ccc(OC(F)(F)F)cc3)ccc2c1OCC | > 64 µM (inactive) |
| c1ccc(-c2csc(-c3ccncc3)n2)cc1 | > 64 µM (inactive) |
| Fc1ccc(-c2csc(Nc3ccccn3)n2)cc1 | > 64 µM (inactive) |
| CN(C)CC(O)c1ccc(C=Cc2ccc(Cl)cc2)cc1 (centres undefined) | > 64 µM (inactive) |
| O=C(C=Cc1cccs1)c1ccc(Cl)s1 | > 64 µM (inactive) |
| O=[N+]([O-])c1ccc(OCc2cnc(Cl)s2)cc1 | 42.3 µM |
| CN(C)C(CNC(=O)CCc1nc2cc(Cl)ccc2n(Cc2ccccc2)c1=O)c1ccccc1 (centres undefined) | > 64 µM (inactive) |
| Brc1ccc(-c2nc(-c3ccccc3)no2)o1 | > 64 µM (inactive) |
| O=C(/C=C/Nc1ccc(F)c(F)c1)c1cccs1 | > 64 µM (inactive) |
| Clc1ccc(OCc2cnc(Cl)s2)cc1 | > 64 µM (inactive) |
| CCOc1cc(CNC2CCCC2)cc(Cl)c1OCc1ccccc1 | > 64 µM (inactive) |
